Marks after values point to notes of the source that are not given here.
Test: Measurement of logP values by HPLC on reversed phase columns (EEC directive 79/831 Annex V.A8)
Assay type: physicochemical

For `COCc1cccc(Nc2ncnc(-c3ccnc(C(=O)N(C)CCC#N)c3)n2)c1` [Example B239], the logP (pH 2.7) was 1.94.
In the case of `C=CCN(CC=C)C(=O)c1cc(-c2ncnc(Nc3ccc(OC)nc3)n2)ccn1` [Example C7], the logP (pH 7.8) is reported as 2.58^[c].
For `CCN(CC(C)(C)O)C(=O)c1cc(-c2ncnc(Nc3cccc(Cl)c3)n2)ccn1` [Example B166], the logP (pH 2.7) was 2.66.
In the case of `CCCN(CCC)C(=O)c1cc(-c2ccnc(Nc3ccnc(Cl)c3)n2)ccn1` [Example A11], the logP (pH 7.8) is reported as 2.88^[c].
`N#CC1CCN(C(=O)c2cc(-c3ncnc(Nc4cccc(Cl)c4)n3)ccn2)CC1` [Example B170] showed a logP (pH 2.7) of 2.59.
`CCN(C)C(=S)c1cc(-c2ncnc(Nc3cccc(C(C)C)c3)n2)ccn1` [Example B259] showed a logP (pH 2.7) of 3.7.
For `CCN(OC)C(=O)c1cc(-c2ncnc(Nc3ccsc3)n2)ccn1` [Example C32], the logP (pH 7.8) was 2.33^[c].
In the case of `Cc1ccc(Nc2ncnc(-c3ccnc(C(=O)N(C)CC(C)C)c3)n2)cc1Cl` [Example B368], the logP (pH 2.7) is reported as 3.78.
`O=C(c1cc(-c2ccnc(Nc3ccnc(Cl)c3)n2)ccn1)N1CCCC1` [Example A7] gave a logP (pH 2.7) of 2.08.
With `CCN(C)C(=O)c1cc(-c2ncnc(Nc3cc(F)ccc3F)n2)ccn1` [Example B358] the logP (pH 2.7) was 2.39.
With `CC1CCCCN1C(=O)c1cc(-c2ncnc(Nc3cccc(Cl)c3)n2)ccn1` (centres unmarked) [Example B142] the logP (pH 2.7) was 3.39.
In the case of `CSc1cccc(Nc2ncnc(-c3ccnc(C(=O)NCC4CC4)c3)n2)c1` [B219], the logP (pH 2.7) is reported as 3.64.
Work on `CCN(CC)C(=O)c1cc(-c2ncnc(Nc3ccc(F)cc3)n2)ccn1` [Example B15] yielded a logP (pH 2.7) of 2.6.
`CC(C)CN(C)C(=O)c1cc(-c2ncnc(Nc3ccccc3)n2)ccn1` [Example B315] gave a logP (pH 2.7) of 2.84.
Compound `CC(C)CN(C)C(=O)c1cc(-c2ncnc(Nc3ccc(F)c(F)c3)n2)ccn1` [Example B380] has a logP (pH 2.7) of 3.19.
`CCN(C)C(=S)c1cc(-c2ncnc(N(C(=O)COC)c3cccc(F)c3)n2)ccn1` [Example B338] gave a logP (pH 2.7) of 2.62.
`O=C(c1cc(-c2ncnc(Nc3cccc(Cl)c3)n2)ccn1)N1CCOCC1` [Example B116] showed a logP (pH 2.7) of 2.39.
Compound `CCN(CC)C(=O)c1cc(-c2ncnc(Nc3ccc(C)c(Cl)c3)n2)ccn1` [Example B349] has a logP (pH 2.7) of 3.44.
`CN(C(=O)c1cc(-c2ncnc(Nc3cccc(Cl)c3)n2)ccn1)C1CCCCC1` [Example B144] gave a logP (pH 2.7) of 3.89.
Compound `CCC(=NOCC(C)C)c1cc(-c2ncnc(Nc3cccc(Cl)c3)n2)ccn1` (mixture of isomers) [B65] has a logP (pH 2.7) of 6.19.
Compound `O=C(NC1CCCC1)c1cc(-c2ncnc(Nc3cccc(Cl)c3)n2)ccn1` [B71] has a logP (pH 2.7) of 4.03.
Work on `CCN(CC)C(=O)c1cc(-c2ncnc(Nc3ccc(F)c(Cl)c3)n2)ccn1` [Example B202] yielded a logP (pH 2.7) of 3.13.
`COC(=O)c1cc(-c2ncnc(Nc3ccc(Br)c(OC)c3)n2)ccn1` [B421] showed a logP (pH 2.7) of 2.90.
`COc1ccc(Nc2ncnc(-c3ccnc(C(=O)N(C)C)c3)n2)cn1` [Example C8] showed a logP (pH 2.7) of 1.57.
Work on `CCON=C(CC)c1cc(-c2ncnc(Nc3cccc(Cl)c3)n2)ccn1` (mixture of isomers) [Example B40] yielded a logP (pH 2.7) of 5.1.
With `CC(C)N(C)C(=O)c1cc(-c2ncnc(Nc3cccc(OC(F)F)c3)n2)ccn1` [Example B302] the logP (pH 2.7) was 2.78.
`O=C(NC1CCC1)c1cc(-c2ncnc(Nc3ccc(F)c(Cl)c3)n2)ccn1` [B199] showed a logP (pH 2.7) of 3.94.
In the case of `CCN(CC)C(=O)c1cc(-c2ncnc(Nc3ccc(OC)nc3)n2)ccn1` [Example C4], the logP (pH 7.8) is reported as 2.11^[c].
With `CCCN(CCC)C(=O)c1cc(-c2ncnc(Nc3cccc(Cl)c3)n2)ccn1` [Example B124] the logP (pH 2.7) was 3.89.
`CCCN(C)C(=O)c1cc(-c2ncnc(Nc3cccc(OC(F)(F)F)c3)n2)ccn1` [Example B264] showed a logP (pH 2.7) of 3.37.
Compound `CC(C)N(C)C(=O)c1cc(-c2ncnc(Nc3ccsc3)n2)ccn1` [Example C20] has a logP (pH 2.7) of 2.37.
Compound `CCCCN(CC)C(=O)c1cc(-c2ncnc(Nc3ccc(OC)nc3)n2)ccn1` [Example C11] has a logP (pH 2.7) of 2.78.
`CCN(C)C(=S)c1cc(-c2ncnc(Nc3ccccc3)n2)ccn1` [Example B318] gave a logP (pH 2.7) of 2.73.
In the case of `COC1CCN(C(=O)c2cc(-c3ncnc(Nc4cccc(Cl)c4)n3)ccn2)CC1` [Example B169], the logP (pH 2.7) is reported as 2.68.
Compound `C#CCN(c1ccccc1)c1ncnc(-c2ccnc(C(=O)N(C)CC3CC3)c2)n1` [Example B402, N-(cyclopropylmethyl)-N-methyl-4-{4-[phenyl(prop-2-yn-1-yl)amino]-1,3,5-triazin-2-yl}pyridine-2-carboxamide] has a chromatographic logP (pH 2.7) of 2.98.
`COCC(C)NC(=O)c1cc(-c2ncnc(Nc3cccc(SC)c3)n2)ccn1` (centres unmarked) [B212] gave a logP (pH 2.7) of 3.31.
In the case of `CCCN(C)C(=O)c1cc(-c2ncnc(Nc3ccc(F)c(Cl)c3)n2)ccn1` [Example B203], the logP (pH 2.7) is reported as 3.13.
`CCN1CCCC(NC(=O)c2cc(-c3ncnc(Nc4cccc(Cl)c4)n3)ccn2)C1` (centres unmarked) [B122] showed a logP (pH 2.7) of 1.82.
`C#CCN(c1cccc(Cl)c1)c1ncnc(-c2ccnc(C(=O)N(C)CCC#N)c2)n1` [B403] showed a logP (pH 2.7) of 2.77.
Compound `CCN(C)C(=O)c1cc(-c2ncnc(Nc3cccc(Cl)c3)n2)ccn1` [Example B157] has a logP (pH 2.7) of 2.69.
`O=C(c1cc(-c2ncnc(Nc3cccc(Cl)c3)n2)ccn1)N1CCCC(CO)C1` (centres unmarked) [Example B145] showed a logP (pH 2.7) of 2.3.
`CCN(CC)C(=O)c1cc(-c2ncnc(Nc3cccc(C(F)(F)F)c3)n2)ccn1` [Example B346] showed a logP (pH 2.7) of 3.23.
`CN(CC1CC1)C(=S)c1cc(-c2ncnc(Nc3cccc(C(F)F)c3)n2)ccn1` [Example B331] showed a logP (pH 2.7) of 3.37.
For `CNN=C(C)c1cc(-c2ncnc(Nc3cccc(Cl)c3)n2)ccn1` [Example B75], the logP (pH 2.7) was 2.27.
Work on `CCN(CC)C(=O)c1cc(-c2ncnc(Nc3cccc(OC(F)(F)F)c3)n2)ccn1` [Example B263] yielded a logP (pH 2.7) of 3.39.
`COCCN(C)C(=O)c1cc(-c2ncnc(Nc3cccc(F)c3)n2)ccn1` [Example B9] showed a logP (pH 2.7) of 2.26.
In the case of `CCN(CC)C(=O)c1cc(-c2ncnc(Nc3ccsc3)n2)ccn1` [Example C13], the logP (pH 2.7) is reported as 2.44.
In the case of `CC(C)CN(C)C(=O)c1cc(-c2ncnc(Nc3cccc(OC(F)F)c3)n2)ccn1` [Example B301], the logP (pH 2.7) is reported as 3.15.
In the case of `CN(CC1CC1)C(=S)c1cc(-c2ncnc(Nc3cccc(F)c3)n2)ccn1` [Example B12], the logP (pH 2.7) is reported as 3.42.
Work on `CN(CC1CCCO1)C(=O)c1cc(-c2ncnc(Nc3cccc(Cl)c3)n2)ccn1` (centres unmarked) [Example B160] yielded a logP (pH 2.7) of 2.76.
`COCC(C1CC1)N(C)C(=O)c1cc(-c2ncnc(Nc3ccc(F)cc3)n2)ccn1` (centres unmarked) [Example B24] showed a logP (pH 2.7) of 2.8.
`CCN(C)C(=S)c1cc(-c2ncnc(Nc3cccc(F)c3)n2)ccn1` [Example B10] showed a logP (pH 2.7) of 2.94.
`COC(=O)c1cc(-c2ncnc(Nc3ccnc(Cl)c3)n2)ccn1` [Example C25] gave a logP (pH 2.7) of 2.02.
With `CN(CC1CC1)C(=O)c1cc(-c2ncnc(Nc3cccc(F)c3)n2)ccn1` [Example B4] the logP (pH 2.7) was 2.82.
With `CCN(C)C(=O)c1cc(-c2ncnc(Nc3ccc(C)c(Cl)c3)n2)ccn1` [Example B236] the logP (pH 2.7) was 3.02.
For `CN(CC(F)F)C(=O)c1cc(-c2ncnc(Nc3cccc(C#N)c3)n2)ccn1` [Example B369], the logP (pH 2.7) was 2.45.
Work on `CN(CC1CC1)C(=S)c1cc(-c2ncnc(Nc3ccccc3)n2)ccn1` [Example B337] yielded a logP (pH 2.7) of 3.23.
Work on `CCN(C)C(=O)c1cc(Nc2nccc(-c3ccnc(C(=O)N(C)CC)c3)n2)ccn1` [Example A19, N-ethyl-4-[2-({2-[ethyl(methyl)carbamoyl]pyridin-4-yl}amino)pyrimidin-4-yl]-N-methylpyridine-2-carboxamide] yielded a chromatographic logP (pH 2.7) of 1.19.
With `CCC(=NOC(C1CC1)C1CC1)c1cc(-c2ncnc(Nc3cccc(Cl)c3)n2)ccn1` (mixture of isomers) [B79] the logP (pH 2.7) was 6.59.
`COCc1cccc(Nc2ncnc(-c3ccnc(C(=S)N(C)CC4CC4)c3)n2)c1` [Example B249] gave a logP (pH 2.7) of 3.12.
For `CCCN(C)C(=O)c1cc(-c2ncnc(Nc3cccc(Cl)c3)n2)ccn1` [Example B132], the logP (pH 2.7) was 3.06.
`CCON(C)C(=O)c1cc(-c2ncnc(Nc3cccc(C(F)F)c3)n2)ccn1` [B415] showed a logP (pH 2.7) of 2.57.
Compound `CCN(C)C(=S)c1cc(-c2ncnc(Nc3cccc(OC(F)(F)C(F)F)c3)n2)ccn1` [Example B261] has a logP (pH 2.7) of 3.41.
`CCN(CC)C(=S)c1cc(-c2ncnc(Nc3cccc(F)c3)n2)ccn1` [Example B11] gave a logP (pH 2.7) of 3.31.
`CCCN(C)C(=O)c1cc(-c2ncnc(Nc3cccc(NC(C)=O)c3)n2)ccn1` [Example B305] gave a logP (pH 2.7) of 1.87.
Compound `COC(=O)c1cc(-c2ncnc(Nc3cccc(C(F)F)c3)n2)ccn1` [B406] has a logP (pH 2.7) of 2.55.
With `CCCN(C)C(=O)c1cc(-c2ncnc(Nc3ccc(F)cc3)n2)ccn1` [Example B16] the logP (pH 2.7) was 2.62.
In the case of `CC(=O)Nc1cccc(Nc2ncnc(-c3ccnc(C(=O)N(C)CCC#N)c3)n2)c1` [B304], the logP (pH 2.7) is reported as 2.08.
For `CN(CCC#N)C(=O)c1cc(-c2ncnc(Nc3cccc(C(F)F)c3)n2)ccn1` [Example B284], the logP (pH 2.7) was 2.25.
With `CN(CC1CC1)C(=O)c1cc(-c2ncnc(Nc3ccc(F)c(C(F)F)c3)n2)ccn1` [B411] the logP (pH 2.7) was 2.98.
Compound `CCOc1cccc(Nc2ncnc(-c3ccnc(C(=S)N(C)CC)c3)n2)c1` [Example B255] has a logP (pH 2.7) of 3.15.
`CCC(C)N(C)C(=O)c1cc(-c2ccnc(Nc3ccnc(Cl)c3)n2)ccn1` (centres unmarked) [Example A29] showed a logP (pH 2.7) of 2.47.
In the case of `CCCC(C)NC(=O)c1cc(-c2ncnc(Nc3ccc(F)c(Cl)c3)n2)ccn1` (centres unmarked) [B200], the logP (pH 2.7) is reported as 4.64.
`CCCN(C)C(=O)c1cc(-c2ncnc(Nc3cccc(OC)c3)n2)ccn1` [Example B274] gave a logP (pH 2.7) of 2.61.
Work on `COCCNC(=O)c1cc(-c2ncnc(Nc3cccc(SC)c3)n2)ccn1` [B214] yielded a logP (pH 2.7) of 2.92.
For `CC1CCCN1C(=O)c1cc(-c2ncnc(Nc3cccc(Cl)c3)n2)ccn1` (centres unmarked) [Example B152], the logP (pH 2.7) was 3.23.
Work on `CCCON=C(C)c1cc(-c2ncnc(Nc3cccc(Cl)c3)n2)ccn1` (mixture of isomers) [Example B43] yielded a logP (pH 2.7) of 5.13.
In the case of `CC1(C)CCCN(C(=O)c2cc(-c3ncnc(Nc4cccc(Cl)c4)n3)ccn2)C1` [Example B147], the logP (pH 2.7) is reported as 3.83.
With `COCCN(C)C(=O)c1cc(-c2ncnc(Nc3cccc(C(F)(F)F)c3)n2)ccn1` [Example B361] the logP (pH 2.7) was 2.75.
Compound `O=C(c1cc(-c2ncnc(Nc3cccc(Cl)c3)n2)ccn1)N1CCSCC1` [B176] has a logP (pH 2.7) of 2.98.
